Assay results: ChEMBL document CHEMBL1156829 (Proc Natl Acad Sci U S A, 2008)

Assays:
[1] = tested on: Plasmodium falciparum; experiment: NOVARTIS: Inhibition of Plasmodium falciparum 3D7 (drug-susceptible) proliferation in erythrocyte-based infection assay; format: functional, organism-based; settings: Plasmodium falciparum, 3D7
[2] = tested on: Plasmodium falciparum; experiment: NOVARTIS: Inhibition of Plasmodium falciparum W2 (drug-resistant) proliferation in erythrocyte-based infection assay; format: functional, organism-based; settings: Plasmodium falciparum, W2; read-out: EC50
[3] = NOVARTIS: Cytotoxicity against human hepatocellular carcinoma cell line (Huh7); format: toxicity, cell-based, Huh-7; settings: Huh7 cells (hepatocellular carcinoma cell line)

SMILES	EC50 [1] [nM]	EC50 [2] [nM]	CC50 [3] [µM]
COc1cc(/C=C/c2nc(O)nc(O)c2[N+](=O)[O-])cc(Br)c1O	> 1250	> 987	> 9.11
OC1(C(F)(F)F)CC(c2ccccc2)=NN1c1nncc(-c2ccccc2)n1 (configuration not stated)	236	314	> 10
COc1ccc(OC)c(-c2ccc(O)c(CNCC(C)C)c2)c1	950	773	> 10
c1ccc(-c2cc(N3CCC4(CC3)OCCO4)nc(-c3ccccn3)n2)nc1	420	223	> 10
COc1cc(C=C(C#N)c2nc3ccccc3[nH]2)ccc1OCc1ccccc1Cl	757	1190	> 100
CN1CCc2c(sc3nc(SCC(=O)NCCc4ccccc4)n(-c4ccc(Cl)cc4)c(=O)c23)C1	1310	1910	68.5
COc1cc2c(-c3cc(Br)ccc3O)nc3c(c(-c4ccccc4)nn3-c3ccccc3)c2cc1OC	1150	655	> 100
COc1cc(C=C(C#N)c2nc3ccccc3[nH]2)ccc1OCc1ccc(C)cc1	684	328	> 100
COc1ccc(C=NN=C2NC(=O)C(CC(=O)Nc3ccccc3)S2)cc1OC (configuration not stated)	482	857	> 100
C/C(Cl)=C/C[N+]1(CC#Cc2cccc3ccccc23)CCOCC1	672	449	> 10
CCCN(C(=O)C(=O)Nc1ccc2nc3n(c(=O)c2c1)CCCCC3)c1ccc(OCC)cc1	89.9	50.1	> 100
Cc1ccc(S(=O)(=O)Nc2nc3n(n2)C(c2ccccc2)C=C(c2ccccc2)N3)cc1 (configuration not stated)	> 1070	> 1250	> 10
Cc1ccc(S(=O)(=O)NNC(=O)C2CCC(c3ccccc3)CC2)c2nsnc12 (configuration not stated)	727	> 1250	> 10
CCN(CC)c1ccc(C=NNC(=O)c2ccc(Nc3nc(-c4ccccc4)cs3)cc2)c(O)c1	151	54.8	20.1
CCOc1ccc(NCc2ccc(O)c3ncccc23)cc1	7610	> 4370	> 55.6
COc1cc2c(cc1OC)-c1cc3ccc4c(c3c[n+]1CC2)OCO4	103	233	> 6.25
CCC(C)N1CCN(Cc2cccc(OC)c2OC)CC1 (configuration not stated)	> 1250	> 169	> 10

SMILES	EC50 [1] [nM]	EC50 [2] [nM]	CC50 [3] [µM]
O=C(Nc1ccon1)c1cc(-c2cccnc2)nc2ccc(Cl)cc12	1500	606	> 100
CCOc1ccc(NC(=O)N(CCC(C)C)C(C)c2nc3ccccc3c(=O)n2-c2cccc(Cl)c2C)cc1 (configuration not stated)	1200	1140	> 10
CCCCc1ccc(C(=O)N(C)CCCNc2ccnc3cc(Cl)ccc23)cc1	427	41.6	> 10
CC[n+]1c(C)cc2c(sc3ccccc32)c1C	1050	1870	> 100
COc1cc(OC)c(N(C)C(=O)c2cn(C3CCCC3)c(=O)c3c2c2ccccc2n3C)cc1Cl	97.7	55.3	47.2
CCCCCN(C(=O)c1ccc(C)cc1)C(CC)c1nc2ccccc2c(=O)n1-c1ccccc1OC (configuration not stated)	893	1070	> 10
COc1cc([N+](=O)[O-])ccc1NC(=O)CN1CCN(C(=O)c2ccco2)CC1	1600	832	> 100
c1ccc(-c2ccc(CNc3ccc4cn[nH]c4c3)cc2)cc1	> 1250	1040	> 10
CCN(CC)c1ccc2c(C)cc(Nc3ccccc3)[o+]c2c1	239	746	> 10
O=C1C2=C(Nc3ccccc3SC2c2ccc(OCc3ccccc3)cc2)c2ccccc21 (configuration not stated)	479	103	> 100
O=C(Cn1ccc(=NCc2ccccc2)cc1)c1ccc(Cl)cc1	296	602	12.8
Nc1cc(-c2cccs2)n[nH]1	> 11200	> 5810	> 100
CCN1CCN(c2cc(C)c3cc(NC(=O)C=Cc4ccccc4Cl)ccc3n2)CC1	546	697	18.4
COc1ccc(-c2nc(-c3ccc4c(c3)-c3cc(-c5[nH]c(-c6ccc(OC)cc6)nc5-c5ccccc5)ccc3C4=O)c(-c3ccccc3)[nH]2)cc1	7300	3750	94.5
CCCCCCCCOC(=O)NCCCCCCNC(=O)OCCCCCCCC	> 12500	4190	> 100
CCn1c2cc(C)sc2c2cnn(CC(=O)Nc3c(C)nn(C)c3C)c(=O)c21	> 749	> 1250	> 10
CC(CN1CCC(n2cc(C(=O)N3CCCC3)nn2)CC1)c1ccccc1 (configuration not stated)	2410	1020	> 100
